Reference: PubChem BioAssay (NCI)
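A five-concentration, 48-hour dose response in 96-well plates underlies each endpoint, interpolated linearly between surrounding concentrations. Abbreviation: GI50, concentration required for 50% inhibition of growth. TGI: concentration producing complete growth inhibition.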

How the values were obtained:
Assay in all cases: NCI tumour cell line growth inhibition, 48 h
[1] = tested on: 786-0 renal
[2] = tested on: HCT-15 colon
[3] = tested on: MALME-3M melanoma
[4] = tested on: NCI-H226 lung
[5] = tested on: OVCAR-5 ovarian
[6] = tested on: SNB-19 CNS
[7] = tested on: UACC-62 melanoma
[8] = tested on: DU-145 prostate
[9] = tested on: T-47D breast
[10] = tested on: HL-60(TB) leukemia

Row | Structure (SMILES) | TGI [1] [µM] | TGI [2] [µM] | TGI [3] [µM] | TGI [4] [µM] | TGI [5] [µM] | TGI [6] [µM] | TGI [7] [µM] | GI50 [1] [µM] | GI50 [8] [µM] | TGI [8] [µM] | GI50 [2] [µM] | GI50 [3] [µM] | GI50 [4] [µM] | GI50 [5] [µM] | GI50 [6] [µM] | GI50 [9] [µM] | TGI [9] [µM] | GI50 [7] [µM] | GI50 [10] [µM] | TGI [10] [µM]
1 | Cc1cc2cc(Cl)ccc2nc1C(=O)c1ccccc1 | > 100 | > 100 | > 100 | > 100 | > 100 | > 100 | > 100 | – | – | – | – | – | – | – | – | – | – | – | – | –
2 | COc1ccc(-c2cc(-c3ccc(O)cc3)nc3nc(=S)[nH]c(N)c23)cc1 | 56.6 | 58 | 38.7 | 36.9 | 74.3 | > 100 | 30.3 | 22.8 | 12.1 | 35.3 | 19.6 | 17.6 | 15.7 | 32 | 26.7 | 14.3 | 80.1 | 14.7 | – | –
3 | COC(=O)CCC(=O)CC(=O)C(=O)Nc1ccc(F)cc1 | > 100 | > 100 | > 100 | > 100 | > 100 | > 100 | > 100 | – | – | – | – | – | – | – | – | – | – | – | – | –
4 | O=C(/C=C/c1ccccn1)c1ccccc1O | 3.14 | 6.68 | – | 6.23 | 6.8 | 13.4 | 3.87 | 1.75 | 2.31 | 5.69 | 2.35 | – | 2.18 | 2.43 | 3.21 | 2.45 | 8.36 | 1.82 | 2.15 | 6.15
5 | O=C(O)CN(CC(=O)O)Cc1cc2c(cc1O)Oc1cc(O)c(CN(CC(=O)O)CC(=O)O)cc1C21OC(=O)c2ccccc21 | > 100 | > 100 | – | > 100 | > 100 | > 100 | > 100 | – | – | > 100 | – | – | – | – | – | – | > 100 | – | – | > 100
6 | CN(C)c1ccccc1CC(c1c[nH]c2ccccc12)c1c[nH]c2ccccc12 | 25.4 | 28.8 | 31.4 | 25.7 | 30.5 | 27.8 | 27.6 | – | – | – | – | – | – | – | – | – | – | – | – | 25.3
7 | O=C(Nc1ccc(Cl)c(Cl)c1)C(=O)Nn1c(=S)[nH]c2ccccc2c1=O | > 100 | > 100 | > 100 | > 100 | > 100 | > 100 | > 100 | – | – | – | – | – | – | – | – | – | – | – | – | > 100
8 | Cc1ccccc1N=Cc1ccc(N(CCC#N)S(=O)(=O)c2ccccc2)cc1 | > 100 | > 100 | > 100 | > 100 | > 100 | > 100 | > 100 | – | – | – | – | – | – | – | – | – | – | – | – | > 100
9 | Cc1c(/C=N/NC(=O)c2ccccc2)c(=O)n(-c2ccccc2)n1C | > 100 | > 100 | > 100 | > 100 | – | > 100 | > 100 | – | – | – | – | – | – | – | – | – | – | – | – | > 100
10 | COC(=O)C(/C(=N/N)C(=O)Nc1ccc(C)c(C)c1)c1nc2ccc(Cl)cc2[nH]c1=O (stereo not given) | > 100 | > 100 | > 100 | > 100 | > 100 | – | > 100 | – | – | – | – | – | – | – | – | – | > 100 | – | – | > 100
11 | Cn1c(=O)nc2n(-c3ccc(F)cc3)c3ccccc3nc-2c1=O | > 100 | 37.4 | 23 | > 100 | 42.2 | 37.4 | 25 | – | – | – | – | – | – | – | – | – | – | – | – | –
12 | Cc1ccc(C2(C)NC(=S)N(NC(N)=S)C2=S)cc1 (stereo not given) | > 100 | > 100 | > 100 | > 100 | – | > 100 | > 100 | – | – | – | – | – | – | – | – | – | – | – | – | > 100
13 | CC1(C)Cc2cccc(OCC(O)CN3CCN(c4ccc(F)cc4)CC3)c2O1 (stereo not given) | 15.7 | > 50 | – | > 50 | > 50 | > 50 | > 50 | 5.66 | 24.1 | > 50 | 13.5 | – | 17.1 | 22.1 | 31.7 | – | – | 11.6 | 16.4 | > 50
14 | CC(C)(C)C(=O)OCOP(=O)(OCOC(=O)C(C)(C)C)C1CCCN(OC(=O)c2ccccc2)C1=O (stereo not given) | 26.4 | 39.9 | 5.44 | 19.5 | > 100 | 17 | 2.99 | 0.61 | 2.62 | > 100 | 1.28 | 0.457 | 1.34 | 4.1 | 1.51 | 1.38 | 16.7 | 1.09 | – | –
15 | Nc1nc(=O)n(C2CC(O)C(O)C(CO)O2)cc1F (stereo not given) | > 100 | > 100 | > 100 | > 100 | > 100 | > 100 | > 100 | – | – | – | – | – | – | – | – | – | – | – | – | > 100
16 | COCC1C(=O)c2cc3c(cc2C12C=CC1(C=C2)OCCO1)OCO3 (stereo not given) | 4.54 | 2.96 | 27.4 | 22.8 | – | – | 24.6 | – | – | – | – | – | – | – | – | – | – | – | – | 5.97
17 | SC[C@@H]1COC[C@H](CS)S1 | > 100 | > 100 | – | – | > 100 | > 100 | > 100 | – | – | > 100 | – | – | – | – | – | – | > 100 | – | – | > 100
18 | CN(C)c1ccc(/C=C/C(=O)c2ccccc2)cc1Br | 31.8 | 54.7 | 43 | – | > 100 | 41.3 | 32.3 | – | – | – | – | – | – | – | – | – | – | – | – | –
19 | COc1ccc(NC(=O)CC/C(CC(=O)c2ccccc2Cl)=N\Nc2nnc(C)n2N)cc1 | > 100 | > 100 | > 100 | > 100 | > 100 | > 100 | > 100 | – | – | – | – | – | – | – | – | – | – | – | – | > 100
20 | COc1ccc(C(=O)/C(=N/Nc2ccccc2)c2ccc(OC)cc2)cc1 | > 100 | > 100 | > 100 | > 100 | > 100 | > 100 | > 100 | – | – | – | – | – | – | – | – | – | – | – | – | –
21 | O=C(c1ccccc1)c1ccc(Cl)c([N+](=O)[O-])c1 | 99.2 | 9.86 | – | 51.7 | 18.7 | 30.2 | – | 21 | 3.69 | 11.7 | 2.95 | – | 19.8 | 4.38 | 16 | 7.54 | 38.6 | – | 2.56 | 6.58
